Data reported in the NIST ThermoML archive (doi:10.1021/je300199a).
Where “and” joins values, the source holds several entries; their conditions need not be identical. Equal values may be shown once.

Conditions: Calculated from knudsen effusion weight loss

[Cu] [copper]
Conditions	vapor or sublimation pressure
1211 K, Crystal	3.2e-06 kPa
1229 K, Crystal	2.6e-06 kPa
1249 K, Crystal	6.5e-06 kPa and 5.9e-06 kPa
1267 K, Crystal	1e-05 kPa
1281 K, Crystal	1.4e-05 kPa and 1.5e-05 kPa
1300 K, Crystal	2.1e-05 kPa and 1.9e-05 kPa
1314 K, Crystal	2.8e-05 kPa and 2.7e-05 kPa
1329 K, Crystal	4.5e-05 kPa and 3.8e-05 kPa
1343 K, Crystal	5.4e-05 kPa and 5.1e-05 kPa
1356 K, Crystal	7e-05 kPa
1370 K, Liquid	9e-05 kPa
1379 K, Liquid	0.00013 kPa
1384 K, Liquid	0.00012 kPa
1388 K, Liquid	0.00014 kPa
1397 K, Liquid	0.00015 kPa
1409 K, Liquid	0.00018 kPa and 0.00019 kPa
1421 K, Liquid	0.00023 kPa
1432 K, Liquid	0.00027 kPa and 0.00028 kPa
1434 K, Liquid	0.00033 kPa
1443 K, Liquid	0.00034 kPa
1454 K, Liquid	0.0004 kPa and 0.00041 kPa
1463 K, Liquid	0.00047 kPa and 0.00049 kPa
1474 K, Liquid	0.00055 kPa and 0.00057 kPa
1484 K, Liquid	0.00065 kPa and 0.0007 kPa
1494 K, Liquid	0.0007 kPa and 0.0008 kPa
1503 K, Liquid	0.0008 kPa and 0.0009 kPa
1512 K, Liquid	0.0008 kPa and 0.0011 kPa
1522 K, Liquid	0.0013 kPa and 0.0012 kPa
1530 K, Liquid	0.0015 kPa and 0.0014 kPa
1539 K, Liquid	0.0016 kPa
1547 K, Liquid	0.0018 kPa and 0.0019 kPa
1555 K, Liquid	0.0021 kPa
1565 K, Liquid	0.0023 kPa and 0.0024 kPa and 0.0027 kPa
1572 K, Liquid	0.0026 kPa and 0.0028 kPa and 0.0031 kPa
1581 K, Liquid	0.0029 kPa and 0.0031 kPa and 0.0035 kPa
1588 K, Liquid	0.0031 kPa and 0.0036 kPa and 0.004 kPa
1596 K, Liquid	0.0038 kPa and 0.0041 kPa and 0.0045 kPa
1604 K, Liquid	0.0039 kPa and 0.0046 kPa and 0.005 kPa
1611 K, Liquid	0.0042 kPa and 0.0052 kPa and 0.0055 kPa
1619 K, Liquid	0.0046 kPa and 0.0058 kPa and 0.006 kPa
1628 K, Liquid	0.005 kPa and 0.0066 kPa

O=[Si] [silicon monooxide]
Crystal
Conditions	vapor or sublimation pressure [kPa]
1211 K	3e-06
1229 K	1.6e-06
1249 K	8e-06
1267 K	1.3e-05
1281 K	2.2e-05
1300 K	4e-05
1314 K	6e-05
1329 K	9e-05
1343 K	0.00013
1356 K	0.0002
1370 K	0.00028
1384 K	0.0004
1397 K	0.0005
1409 K	0.0007
1421 K	0.001
1432 K	0.0013
1443 K	0.0017
1454 K	0.0023
1463 K	0.0029
1474 K	0.0036
1484 K	0.005
1494 K	0.006
1503 K	0.007
1512 K	0.009
1522 K	0.011
1530 K	0.013
1539 K	0.015
1547 K	0.018
1555 K	0.021
1565 K	0.024
